Experimental findings from PubChem BioAssay AID330 (DTP/NCI, 2004) are described below.

This assay has as its system P388 leukemia ip, CD2F1 mice, survival T/C. Briefly: NCI In Vivo Anticancer Drug Screen. Data for tumor model P388 Leukemia (intraperitoneal) in CD2F1 (CDF1) mice. The settings on record: endpoint: median survival time, higher = longer survival. In short, it runs like this: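 Mice carrying the transplanted tumor received test compound or vehicle. Survival was recorded in each group, and the value is the treated-group measurement divided by that of the vehicle-treated control group.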

The mark [1] stands for this setting: dose: 100.0 mg/kg/injection, schedule: Q04DX002 (ip), vehicle: saline with Tween-80.
[2] abbreviates: dose: 200.0 mg/kg/injection, schedule: Q04DX002 (ip), vehicle: saline with Tween-80.
[3] abbreviates: dose: 400.0 mg/kg/injection, schedule: Q04DX002 (ip), vehicle: saline with Tween-80.
Setting [4] is: dose: 100.0 mg/kg/injection, schedule: Q04DX003 (ip), vehicle: saline.
The mark [5] stands for this setting: dose: 200.0 mg/kg/injection, schedule: Q04DX003 (ip), vehicle: saline.
The mark [6] stands for this setting: dose: 12.5 mg/kg/injection, schedule: Q01DX009 (ip), vehicle: saline.
The mark [7] stands for this setting: dose: 25.0 mg/kg/injection, schedule: Q01DX009 (ip), vehicle: saline.
Where [8] appears, read: dose: 50.0 mg/kg/injection, schedule: Q01DX009 (ip), vehicle: saline.
Setting [9] is: dose: 100.0 mg/kg/injection, schedule: Q01DX009 (ip), vehicle: saline.
Setting [10] is: dose: 200.0 mg/kg/injection, schedule: Q01DX009 (ip), vehicle: saline.
The mark [11] stands for this setting: dose: 50.0 mg/kg/injection, schedule: Q01DX009 (ip), vehicle: Klucel (hydroxypropylcellulose) (HPC).
Where [12] appears, read: dose: 100.0 mg/kg/injection, schedule: Q01DX009 (ip), vehicle: Klucel (hydroxypropylcellulose) (HPC).
[13] abbreviates: dose: 200.0 mg/kg/injection, schedule: Q01DX009 (ip), vehicle: Klucel (hydroxypropylcellulose) (HPC).
The mark [14] stands for this setting: dose: 100.0 mg/kg/injection, schedule: Q01DX001 (ip), vehicle: saline with Tween-80.
Where [15] appears, read: dose: 200.0 mg/kg/injection, schedule: Q01DX001 (ip), vehicle: saline with Tween-80.
Setting [16] is: dose: 12.5 mg/kg/injection, schedule: Q01DX009 (ip), vehicle: Klucel (hydroxypropylcellulose) (HPC).
Where [17] appears, read: dose: 25.0 mg/kg/injection, schedule: Q01DX009 (ip), vehicle: Klucel (hydroxypropylcellulose) (HPC).
Where [18] appears, read: dose: 50.0 mg/kg/injection, schedule: Q01DX009 (ip), vehicle: saline with Tween-80.
Where [19] appears, read: dose: 100.0 mg/kg/injection, schedule: Q01DX009 (ip), vehicle: saline with Tween-80.

Structures are written as SMILES. Where “and” joins values, the source holds several entries; their conditions need not be identical. Equal values may be shown once. Inconclusive results and toxic doses are left out.

Regarding `CC1C(=O)OC2C1CCC1(C)CC(Br)C(=O)C(C)C21` (configuration not stated), the T/C is, setting by setting: under setting [1], 102 % of control; under setting [2], 102 % of control and 100 % of control; under setting [3], 104 % of control and 101 % of control.
For `CC1(C)COC(=O)/C1=C1\SC(=S)NC1=O`, the T/C by setting is: under setting [4], 103 % of control; under setting [5], 92 % of control.
For `CCCC(O)C(NC(=O)CCl)C(=O)O` (configuration not stated), the T/C reads like this: under setting [6], 105 % of control and 97 % of control; under setting [7], 100 % of control; under setting [8], 104 % of control and 88 % of control; under setting [9], 91 % of control; under setting [10], 86 % of control.
For the molecule `CCCCCCOC(=O)c1cccc(N)c1`, the T/C under setting [11] is 100 % of control, the T/C under setting [12] is 106 % of control and the T/C under setting [13] was 102 % of control.
For the molecule `c1ccc2c3c(ccc2c1)OCCOc1ccc2ccccc2c1-3`, the T/C runs as follows: under setting [1], 99 % of control; under setting [2], 91 % of control; under setting [3], 90 % of control.
Turning to `CC(=O)ON(C(=O)c1ccc([N+](=O)[O-])cc1)c1ccc(C=O)cc1`, the T/C is 102 % of control under setting [14] and 101 % of control under setting [15].
Take `CC1(OC(=O)c2ccc(F)cc2)CC(C)(C)[N+]([O-])=N1` (configuration not stated): the T/C is 113 % of control (dose: 12.5 mg/kg/injection, schedule: Q01DX009 (ip), vehicle: other); 101 % of control (dose: 25.0 mg/kg/injection, schedule: Q01DX009 (ip), vehicle: other); 118 % of control (dose: 50.0 mg/kg/injection, schedule: Q01DX009 (ip), vehicle: other); 118 % of control (dose: 100.0 mg/kg/injection, schedule: Q01DX009 (ip), vehicle: other); 123 % of control (dose: 200.0 mg/kg/injection, schedule: Q01DX009 (ip), vehicle: other).
With `CN(C)c1ccc(/C=C/c2c(F)cnc3ccccc23)cc1`, the T/C runs as follows: under setting [16], 114 % of control; under setting [17], 101 % of control; under setting [11], 104 % of control.
`O=c1cc[nH]cc1`: the T/C under setting [8] is 100 % of control and 103 % of control; the T/C under setting [9] is 103 % of control and 109 % of control; the T/C under setting [10] is 101 % of control and 113 % of control; the T/C (dose: 400.0 mg/kg/injection, schedule: Q01DX009 (ip), vehicle: saline) was 111 % of control and 116 % of control; the T/C (dose: 600.0 mg/kg/injection, schedule: Q01DX009 (ip), vehicle: saline) was 112 % of control and 113 % of control.
For `CC/C(=C(\CC)c1ccc(OC)cc1)c1ccc(OC)cc1`, the T/C was 107 % of control under setting [17]; 105 % of control under setting [11]; 102 % of control under setting [18]; 106 % of control under setting [12]; 98 % of control under setting [19]; 97 % of control under setting [13].
In the case of `COc1ccc2c(c1)CCCC(Br)C2=O` (configuration not stated), the T/C by setting is: (dose: 25.0 mg/kg/injection, schedule: Q01DX009 (ip), vehicle: distilled water + alcohol) 107 % of control; (dose: 50.0 mg/kg/injection, schedule: Q01DX009 (ip), vehicle: distilled water + alcohol) 105 % of control; (dose: 100.0 mg/kg/injection, schedule: Q01DX009 (ip), vehicle: distilled water + alcohol) 120 % of control; (dose: 200.0 mg/kg/injection, schedule: Q01DX009 (ip), vehicle: distilled water + alcohol) 122 % of control.
Turning to `CCN1/C(=C/C=C/C=C\C=C\c2sc3ccc4ccccc4c3[n+]2CC)Sc2ccc3ccccc3c21`, the T/C is, setting by setting: (dose: 1.56 mg/kg/injection, schedule: Q04DX002 (ip), vehicle: saline with Tween-80) 153 % of control and 168 % of control; (dose: 3.12 mg/kg/injection, schedule: Q04DX002 (ip), vehicle: saline with Tween-80) 166 % of control; (dose: 6.25 mg/kg/injection, schedule: Q04DX002 (ip), vehicle: saline with Tween-80) 156 % of control and 171 % of control; (dose: 12.5 mg/kg/injection, schedule: Q04DX002 (ip), vehicle: saline with Tween-80) 159 % of control and 171 % of control and 186 % of control.
As to `C[Si](C)(C)CSCC#N`, the T/C was 98 % of control under setting [14] and 107 % of control under setting [15].
In the case of `CN1CCC(Br)(C(=O)c2ccccc2)CC1`, the T/C is, setting by setting: (dose: 37.5 mg/kg/injection, schedule: Q01DX009 (ip), vehicle: saline with Tween-80) 100 % of control; (dose: 75.0 mg/kg/injection, schedule: Q01DX009 (ip), vehicle: saline with Tween-80) 100 % of control; (dose: 150.0 mg/kg/injection, schedule: Q01DX009 (ip), vehicle: saline with Tween-80) 104 % of control.
As to `O=C(O)C[N-]CC(=O)O.OO.[O]=[V]`, the T/C is 102 % of control (dose: 3.75 mg/kg/injection, schedule: Q01DX005 (ip), vehicle: saline with Tween-80); 105 % of control (dose: 7.5 mg/kg/injection, schedule: Q01DX005 (ip), vehicle: saline with Tween-80); 112 % of control (dose: 15.0 mg/kg/injection, schedule: Q01DX005 (ip), vehicle: saline with Tween-80); 120 % of control (dose: 30.0 mg/kg/injection, schedule: Q01DX005 (ip), vehicle: saline with Tween-80).
In the case of `N#CC12C3C4C5C3C1C(C42)n1c(=O)n(-c2ccccc2)c(=O)n15` (configuration not stated), the T/C is, setting by setting: under setting [16], 89 % of control and 90 % of control; under setting [17], 89 % of control and 92 % of control; under setting [11], 90 % of control and 95 % of control; under setting [12], 98 % of control; under setting [13], 95 % of control.
As to `OCCN1CCC2(CC1)SSC1(CCN(CCO)CC1)S2`, the T/C reads like this: (dose: 50.0 mg/kg/injection, schedule: Q04DX003 (ip), vehicle: saline) 100 % of control; under setting [4], 100 % of control; under setting [5], 100 % of control.
As to `COc1cc(/C=C/c2nnc3c4ccccc4cnn23)cc(OC)c1OC`, the T/C runs as follows: (dose: 12.5 mg/kg/injection, schedule: Q01DX009 (ip), vehicle: saline with Tween-80) 99 % of control; (dose: 25.0 mg/kg/injection, schedule: Q01DX009 (ip), vehicle: saline with Tween-80) 100 % of control; under setting [18], 101 % of control and 91 % of control; under setting [19], 93 % of control; (dose: 200.0 mg/kg/injection, schedule: Q01DX009 (ip), vehicle: saline with Tween-80) 94 % of control.
Turning to `COc1cc2cc(c1Cl)N1CCC(C)(O)C(=O)NC(C)C(=O)OC(CC1=O)C1(C)OC1C(C)C1CC(O)(NC(=O)O1)C(OC)/C=C\C=C(\C)C2OC` (configuration not stated), the T/C was 150 % of control (dose: 4.0 micrograms/kg/injection, schedule: Q01DX009 (ip), vehicle: distilled water + alcohol); 157 % of control (dose: 16.0 micrograms/kg/injection, schedule: Q01DX009 (ip), vehicle: distilled water + alcohol); 150 % of control (dose: 32.0 micrograms/kg/injection, schedule: Q01DX009 (ip), vehicle: distilled water + alcohol).
With `Cn1c2c(c(=O)c3c4c(=O)c5c([nH]c4ccc31)CCCC5)CCCC2`, the T/C runs as follows: (dose: 100.0 mg/kg/injection, schedule: Q04DX003 (ip), vehicle: saline with Tween-80) 100 % of control; (dose: 200.0 mg/kg/injection, schedule: Q04DX003 (ip), vehicle: saline with Tween-80) 94 % of control; (dose: 400.0 mg/kg/injection, schedule: Q04DX003 (ip), vehicle: saline with Tween-80) 86 % of control.
On to `O=C(O)CN(CCN(CC(=O)O)CC(=O)O)CC(=O)O.[Cd+2]`, for which the T/C is, setting by setting: (dose: 1.56 mg/kg/injection, schedule: Q01DX009 (ip), vehicle: saline) 97 % of control; (dose: 3.12 mg/kg/injection, schedule: Q01DX009 (ip), vehicle: saline) 91 % of control; (dose: 6.25 mg/kg/injection, schedule: Q01DX009 (ip), vehicle: saline) 91 % of control and 94 % of control; under setting [6], 92 % of control and 95 % of control; under setting [7], 92 % of control and 97 % of control; under setting [8], 88 % of control.
On to `COc1cc(/C=C/c2ccc(N(C)C)cc2)oc(=O)c1`, for which the T/C runs as follows: (dose: 100.0 mg/kg/injection, schedule: Q04DX002 (ip), vehicle: Klucel (hydroxypropylcellulose) (HPC)) 101 % of control; (dose: 200.0 mg/kg/injection, schedule: Q04DX002 (ip), vehicle: Klucel (hydroxypropylcellulose) (HPC)) 98 % of control; (dose: 400.0 mg/kg/injection, schedule: Q04DX002 (ip), vehicle: Klucel (hydroxypropylcellulose) (HPC)) 99 % of control.
